Counter-ions that a name gives are not always drawn.
How the values were obtained:
Assay type in all cases: physicochemical
[1] = Inventors' studies of the known crystalline forms of vortioxetine hydrobromide of WO2007/144005A1
From the text: In studies, the inventors of the present invention found out that the multiple crystalline forms of vortioxetine hydrobromide disclosed in WO2007/144005A1 have the following disadvantages: […]

[2] = Dissolution comparison of sustained-release tablets, Example 144; conditions: water, 37° C.
Procedure: The crystalline form of vortioxetine hemihydrobromide of the present invention and the β Form of vortioxetine hydrobromide prepared in preparation example 2 were tableted by the method of example 141 and then subjected to dissolution comparison. Water was used as the dissolution medium. Parameter setting of the dissolution tester: The temperature was 37° C. The rotate speed of the stirring paddle was 50 r/min. Take 3 ml of the dissolution medium out at 0.5, 1, 2, 6 and 12 hours respectively. Each time after sampling, 3 mL of water was added back to the dissolution medium to supplement the volume. The concentration of the dissolution medium at each time point was determined by HPLC.

[3] = Stability competition test (competitive slurry, XRPD); conditions: for Stability Competition Test: crystalline form after competitive slurry (XRPD): equal quantities of both forms slurried 7 days in ethanol or water; for Stability competition test: crystalline form after slurry: slurried in water or ethanol
Procedure: Stability competition test: An equal quantity (250 mg) of the crystalline vortioxetine hemihydrobromide form of the present invention prepared in example 4 and the β Form of vortioxetine hydrobromide prepared in preparation example 2 were respectively added to 3 mL of ethanol or water to produce suspensions. No solvate was formed in ethanol or water. The suspensions were slurried for 7 days at room temperature or at 60° C., and then XRPD characterization analyses were performed.

[4] = Hygroscopicity comparison (DVS isothermal sorption); conditions: relative humidity range 20%-80%
Procedure: Dynamic vapor sorption (DVS) data were collected using TA Instruments Q5000 TGA. The instrument control software was Thermal Advantage, and the analytical software was Universal Analysis. Usually, 1-10 mg of the sample was placed in a platinum pan and the weight change of the sample during experiments was recorded. The relative humidity was usually programmed to change from 20% to 80% and then back to 20%, and an isothermal sorption curve could be generated. Depending on specific situations, different sorption and desorption procedures might be used.
Hygroscopicity comparison: DVS isothermal sorption curves were used, and weight changes within the 20%-80% RH range were measured.

[5] = Dissolution of tablets (paddle method, water), Example 140; conditions: 37° C.
Procedure: The crystalline form of vortioxetine hemihydrobromide of the present invention, the β Form of vortioxetine hydrobromide prepared in preparation example 2 and the β Form of vortioxetine hydrobromide containing 20% of the crystalline form of vortioxetine hemihydrobromide of the present invention were tableted by the method in example 105 and then subjected to phase stability comparison. Dissolution was determined by reference to the dissolution conditions of Benorilate Tablets described in 2010 Chinese Pharmacopoeia. The paddle method was used with the paddle rotation speed at 50 r/min. 900 mL of water was the dissolution medium. The temperature was 37° C. Take 3 mL of the dissolution medium for sampling at 2, 10, 20, 40 and 60 min respectively. Each time after sampling, 3 mL of water was added back to dissolution medium to supplement the volume. The concentration of the dissolution medium at each time point was measured by HPLC, and the dissolution profile was plotted.

[6] = high-temperature conditions, hydrobromide

Cc1ccc(Sc2ccccc2N2CCNCC2)c(C)c1 [hydrate of vortioxetine hydrobromide, vortioxetine hydrobromide]
Stability of the crystalline form [1, 6]: lost water

Cc1ccc(Sc2ccccc2N2CCNCC2)c(C)c1 [the β Form of vortioxetine hydrobromide, 1-[2-(2,4-dimethylphenylsulfanyl)phenyl]piperazine hydrobromide]
Cumulative dissolution ([2]; sustained-release tablets by method of example 141, paddle 50 r/min, 0.5 hours, hydrobromide): 50.0% | Cumulative dissolution ([2]; sustained-release tablets, 12 hours, hydrobromide): 100.0% | Stability Competition Test: crystalline form after competitive slurry (XRPD) ([3]; 60° C., listed as the known β Form of vortioxetine hydrobromide, hydrobromide): completely transformed into the vortioxetine hemihydrobromide crystalline form of the present invention | Stability Competition Test: crystalline form after competitive slurry (XRPD) ([3]; room temperature, listed as the known β Form of vortioxetine hydrobromide, hydrobromide): completely transformed into the vortioxetine hemihydrobromide crystalline form of the present invention | Stability competition test: crystalline form after slurry ([3]; temperature not stated at the place, hydrobromide): transformed to the vortioxetine hemihydrobromide crystalline form of the present invention | Stability competition test: crystalline form after slurry ([3]; temperature not stated at the place, listed as β Form of vortioxetine hydrobromide, hydrobromide): failed to maintain its original crystalline form | Stability competition test: crystalline form after slurry ([3]; temperature not stated, listed as the known β Form of vortioxetine hydrobromide, hydrobromide): completely transformed to the crystalline vortioxetine hemihydrobromide of the present invention | Hygroscopicity Comparison (weight change) ([4]; listed as the known β Form of vortioxetine hydrobromide, hydrobromide): 0.60%

Cc1ccc(Sc2ccccc2N2CCNCC2)c(C)c1 [α Form of vortioxetine hydrobromide, vortioxetine hydrobromide]
Stability of the crystalline form ([1]; room temperature): transformed to the β Form of vortioxetine hydrobromide

Cc1ccc(Sc2ccccc2N2CCNCC2)c(C)c1 [ethyl acetate solvate of vortioxetine hydrobromide]
Stability of the crystalline form ([1]; high-humidity conditions): transformed to hydrate | Stability of the crystalline form [1, 6]: lost ethyl acetate

Cc1ccc(Sc2ccccc2N2CCNCC2)c(C)c1 [vortioxetine hemihydrobromide]
Cumulative dissolution ([2]; sustained-release tablets by method of example 141, paddle 50 r/min, 0.5 hours, hemihydrobromide): 8.1% | Cumulative dissolution ([5]; tablets by method of example 105, 900 mL water, paddle 50 r/min, 2 min, hemihydrobromide): 8.2% | Cumulative dissolution ([5]; tablets, water, 60 min): 100.0% | Stability Competition Test: crystalline form after competitive slurry (XRPD) ([3]; 60° C., listed as the vortioxetine hemihydrobromide crystalline form of the present invention, hemihydrobromide): kept unchanged | Stability Competition Test: crystalline form after competitive slurry (XRPD) ([3]; room temperature, listed as the vortioxetine hemihydrobromide crystalline form of the present invention, hemihydrobromide): invention kept unchanged” | Stability competition test: crystalline form after slurry ([3]; temperature not stated, hemihydrobromide): keeping its crystalline form unchanged | Hygroscopicity Comparison (weight change) ([4]; listed as Example 4, hemihydrobromide): 0.28% | Hygroscopicity Comparison (weight change) ([4]; listed as the vortioxetine hemihydrobromide crystalline form of the present invention, hemihydrobromide): 0.28%

Reference: patent US9562024B2, “Vortioxetine salt and crystal thereof, their preparation method, pharmaceutical compositions and usage” (HANGZHOU PUSHAI PHARMACEUTICAL TECHNOLOGY CO., LTD, priority 2013, dated 2017)
